Measurements published in US20230265151A1, “GIP/GLP1 CO-AGONIST COMPOUNDS” (priority 2020, published 2023).
Read-outs that look alike come from different tables or passages of the source.

Legend:
Assay type in all cases: cell-based
hGLP-1R = hGLP-1R (Homo sapiens, UniProt P43220); assay: Functional cAMP formation (HTRF) in HEK-293 clonal cells expressing hGLP-1R, 0.1% bovine casein, without or with 1.0% human serum albumin; design: expressed in transfected cells; conditions: for EC50: geometric mean, read-out: hGLP-1R EC50, nM (SEM, n)
Sequence of hGLP-1R (P43220 24-463): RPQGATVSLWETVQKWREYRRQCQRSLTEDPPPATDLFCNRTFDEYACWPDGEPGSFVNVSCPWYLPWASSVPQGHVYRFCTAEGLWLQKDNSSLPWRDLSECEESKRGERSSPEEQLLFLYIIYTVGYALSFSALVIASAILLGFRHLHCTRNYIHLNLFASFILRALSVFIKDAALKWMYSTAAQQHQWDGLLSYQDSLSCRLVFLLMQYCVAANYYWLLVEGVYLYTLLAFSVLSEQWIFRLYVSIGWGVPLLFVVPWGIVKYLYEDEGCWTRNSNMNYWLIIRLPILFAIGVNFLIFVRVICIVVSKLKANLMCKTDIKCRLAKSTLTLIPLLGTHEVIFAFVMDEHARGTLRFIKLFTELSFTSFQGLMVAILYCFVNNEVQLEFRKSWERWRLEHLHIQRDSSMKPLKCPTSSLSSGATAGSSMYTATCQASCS
How it was run: (§1)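 Cells were stimulated with peptide for 30 min at 37° C, then intracellular cAMP was measured by competitive HTRF (665/620 nm ratio) and converted to nM using a cAMP standard curve. Relative EC50 and Emax came from four-parameter logistic fits of percent maximal response against peptide concentration.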

hGIPR = target: T1, hGIPR (Homo sapiens, UniProt P48546); assay: Functional cAMP formation (HTRF) in HEK-293 clonal cells expressing hGIPR, 0.1% bovine casein, without or with 1.0% human serum albumin; conditions: for Emax: read-out: hGIPR Emax, % ± SEM; for EC50: geometric mean, read-out: hGIPR EC50, nM (SEM, n)
T1 construct: expressed in transfected cells
T1 sequence (P48546 22-466): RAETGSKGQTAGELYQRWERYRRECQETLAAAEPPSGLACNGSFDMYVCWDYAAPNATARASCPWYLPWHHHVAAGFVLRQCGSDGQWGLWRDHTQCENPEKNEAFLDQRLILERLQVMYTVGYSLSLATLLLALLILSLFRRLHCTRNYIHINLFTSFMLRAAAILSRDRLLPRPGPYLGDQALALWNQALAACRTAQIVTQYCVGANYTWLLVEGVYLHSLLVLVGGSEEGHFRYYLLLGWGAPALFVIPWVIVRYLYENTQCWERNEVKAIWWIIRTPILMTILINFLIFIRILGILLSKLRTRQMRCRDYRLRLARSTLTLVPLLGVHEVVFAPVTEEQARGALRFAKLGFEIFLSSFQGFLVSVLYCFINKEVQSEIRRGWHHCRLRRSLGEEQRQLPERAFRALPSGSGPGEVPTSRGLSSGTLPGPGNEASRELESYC
How it was run: as §1

hGCGR = target: T2, hGCGR (Homo sapiens, UniProt P47871); assay: Functional cAMP formation (HTRF) in HEK-293 clonal cells expressing hGCGR, 0.1% bovine casein, without or with 1.0% human serum albumin; conditions: geometric mean, read-out: hGCGR EC50, nM (SEM, n)
T2 construct: expressed in transfected cells
T2 sequence (P47871 26-477): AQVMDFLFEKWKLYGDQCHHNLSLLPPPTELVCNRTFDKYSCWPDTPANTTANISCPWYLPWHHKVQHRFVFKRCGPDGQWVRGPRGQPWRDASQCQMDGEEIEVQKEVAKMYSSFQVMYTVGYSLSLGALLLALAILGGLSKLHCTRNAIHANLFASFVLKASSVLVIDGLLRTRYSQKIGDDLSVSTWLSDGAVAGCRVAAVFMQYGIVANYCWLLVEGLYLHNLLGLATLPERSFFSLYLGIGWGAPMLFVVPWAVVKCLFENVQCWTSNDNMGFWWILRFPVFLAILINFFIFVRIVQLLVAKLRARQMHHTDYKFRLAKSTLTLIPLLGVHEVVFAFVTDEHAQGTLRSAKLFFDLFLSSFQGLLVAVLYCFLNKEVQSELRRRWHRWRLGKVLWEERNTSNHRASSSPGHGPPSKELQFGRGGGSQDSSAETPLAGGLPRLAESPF
How it was run: as §1

[1] = cAMP, incubated at 37° C., 0.1% bovine casein (no human serum albumin)
[2] = HEK293, 0.1% bovine casein and 1.0% human serum albumin, 37° C., percent of maximal response to GIP(1-42)NH2
[3] = 0.1% bovine casein and 1.0% human serum albumin, 37° C.

SMILES | Emax (hGLP-1R; HEK293, percent of maximal response to GLP-1(7-36)NH2, 37° C., 0.1% bovine casein, arithmetic mean, read-out: hGLP-1R Emax, % ± SEM) [%] | EC50 (hGLP-1R; [1]) [nM] | Emax (hGIPR; [2]) [%] | Emax (hGIPR; HEK293, percent of maximal response to GIP(1-42)NH2, 37° C., 0.1% bovine casein, arithmetic mean) [%] | EC50 (hGIPR; [1]) [nM] | EC50 (hGCGR; [3]) [nM] | EC50 (hGCGR; [1]) [nM] | EC50 (hGLP-1R; [3]) [nM] | EC50 (hGIPR; [3]) [nM]
CC[C@H](C)[C@H](NC(=O)[C@H](CC(C)C)NC(=O)[C@](C)(Cc1ccc(O)cc1)NC(=O)[C@@H](CCC(=O)O)NC(=O)[C@@H](NC(=O)[C@H](Cc1ccccc1)NC(=O)[C@H](CCCCNC(=O)COCCOCCNC(=O)COCCOCCNC(=O)CC[C@H](NC(=O)CCCCCCCCCCCCC(=O)O)C(=O)O)NC(=O)C(C)(C)NC(=O)[C@H](CCC(N)=O)NC(=O)[C@H](C)NC(=O)[C@H](CCCCNC(=O)COCCOCCNC(=O)COCCOCCNC(=O)CC[C@H](NC(=O)CCCCCCCCCCCCC(=O)O)C(=O)O)NC(=O)[C@H](CCCN)NC(=O)[C@H](CC(=O)O)NC(=O)[C@H](CC(C)C)NC(=O)[C@](C)(CC(C)C)NC(=O)[C@@H](NC(=O)C(C)(C)NC(=O)[C@H](Cc1ccc(O)cc1)NC(=O)[C@H](CC(=O)O)NC(=O)[C@H](CO)NC(=O)[C@@H](NC(=O)[C@](C)(Cc1ccccc1F)NC(=O)[C@@H](NC(=O)CNC(=O)[C@H](CCC(=O)O)NC(=O)C(C)(C)NC(=O)[C@@H](N)Cc1ccc(O)cc1)[C@@H](C)O)[C@@H](C)O)[C@@H](C)CC)[C@@H](C)CC)C(=O)N[C@@H](CCC(=O)O)C(=O)NCC(=O)NCC(=O)N1CCC[C@H]1C(=O)N[C@@H](CO)C(=O)N[C@@H](CO)C(=O)NCC(=O)N[C@@H](C)C(=O)N1CCC[C@H]1C(=O)N1CCC[C@H]1C(=O)N1CCC[C@H]1C(=O)N[C@@H](CO)C(N)=O [Example 230] | 90.3 | 0.726 | 85.8 | 105 | 0.0199 | > 9950 | > 9950 | – | –
CC[C@H](C)[C@H](NC(=O)[C@H](CCCN)NC(=O)[C@H](CC(=O)O)NC(=O)[C@H](CC(C)C)NC(=O)[C@](C)(CC(C)C)NC(=O)[C@@H](NC(=O)[C@H](CO)NC(=O)[C@H](Cc1ccncc1)NC(=O)[C@H](CC(=O)O)NC(=O)[C@H](CO)NC(=O)[C@@H](NC(=O)[C@](C)(Cc1ccccc1F)NC(=O)[C@@H](NC(=O)CNC(=O)[C@H](CCC(=O)O)NC(=O)C(C)(C)NC(=O)[C@@H](N)Cc1ccc(O)cc1)[C@@H](C)O)[C@@H](C)O)[C@@H](C)CC)C(=O)N[C@@H](C)C(=O)N[C@@H](CCC(N)=O)C(=O)NC(C)(C)C(=O)N[C@@H](CCC(=O)O)C(=O)N[C@@H](Cc1ccccc1)C(=O)N[C@H](C(=O)N[C@@H](CCCCNC(=O)[C@@H](N)CCCCNC(=O)CC[C@H](NC(=O)CCCCCCCCCCCCC(=O)O)C(=O)O)C(=O)N[C@@](C)(Cc1ccc(O)cc1)C(=O)N[C@@H](CC(C)C)C(=O)N[C@H](C(=O)N[C@@H](CCC(=O)O)C(=O)NCC(=O)NCC(=O)N[C@@H](CCCCNC(=O)[C@@H](N)CCCCNC(=O)CC[C@H](NC(=O)CCCCCCCCCCCCC(=O)O)C(=O)O)C(=O)N[C@@H](CO)C(=O)N[C@@H](CO)C(=O)NCC(=O)N[C@@H](C)C(=O)N1CCC[C@H]1C(=O)N1CCC[C@H]1C(=O)N1CCC[C@H]1C(=O)N[C@@H](CO)C(N)=O)[C@@H](C)CC)[C@@H](C)CC [Example 197] | – | 0.336 | 84.5 ± 4.08 | – | 0.0338 | > 9950 | > 9950 | 26.2 | 2.06
